US9364414B2, “Method to protect skin from ultraviolet radiation using novel peptides involved in the improvement of microparasol organization in keratinocytes” (ISP Investments Inc., priority 2011, dated 2016)
Ends that are not written are not given here.

Tests used:
[1] = tested on: dynactin subunit p150Glued; assay: Expression of p150Glued in ex-vivo human skin biopsies (immunostaining); format: cell-based; conditions: 100 ppm stock diluted at 1%, twice a day, 48 hours
Method: Samples of ex-vivo human skin biopsies from a person, were cultured at the air/liquid interface. The samples were treated twice a day with a stock solution of peptide SEQ ID NO: 7 at 100 ppm, diluted at the 1%, for 48 hours.
Immunostaining was then performed by means of an antibody directed to p150Glued subunit (REF.Santacruz sc-9804), followed by a secondary antibody, coupled with a green fluorescent marker (REF Invitrogen, A11055). The skin sections were then examined using Nikon® Eclipse 80i microscope.
Quantification was carried out with VOLOCITY® image analysis software.

[2] = tested on: keratinocytes containing melanosomes (NHK/NHEM co-culture); assay: Frequency of keratinocytes containing melanosomes in NHK/NHEM co-culture after p150Glued siRNA; format: cell-based, human; conditions: after 10 nM p150Glued siRNA, 48 hours
Method: Normal human primary keratinocytes (NHK) and normal human epidermal melanocytes (NHEM) were co-cultured (ratio: 1 melanocyte/4 keratinocytes) in Keratinocyte Serum Free Medium (KSFM, GIBCO) supplemented with 50 μg/ml bovine pituitary extract, 5 ng/ml human recombinant EGF (GIBCO) and 100 μg/ml Primocin™ (INVIVOGEN). Cells were maintained at 37° C. in a humidified atmosphere containing 5% CO2.
NHK and NHEM cells co-seeded for 48 hours were treated, or not, in duplicate, once with 10 nM of p150Glued-specific siRNA.
Cells were then treated, or not, in duplicate, twice a day for 48 hours with a solution of peptide compound SEQ ID NO: 7 at 100 ppm, diluted at 0.5% or 1% before use, without medium change.
Cells were rinsed with PBS and fixed with cold methanol for 4 minutes. Cellular membranes were permeabilized using 0.1% X-100 Triton (Fisher Scientific) for 10 minutes. Unspecific binding sites were blocked, then cells were incubated with the primary antibodies directed to melanosomes (mouse monoclonal anti-“pmel17” Abcam, ab34165 and rabbit monoclonal anti “keratin-14” Abcam, ab51054) diluted in PBS, for 1 hour and a half, under agitation, at room temperature, in a damp room. […]
Three images per condition were analyzed. […] The frequency of keratinocyte containing melanosomes was evaluated and expressed in percentage. […]

[3] = tested on: supranuclear organization of melanosomes in ex-vivo skin; assay: Microparasol supranuclear organization in ex-vivo skin (light and electron microscopy); format: cell-based, human; conditions: 0.5% (light microscopy) or 1% (electron microscopy), 48 hours
Method: 6 mm diameter punch biopsies were obtained from a person (light microscopy) and a person (electron microscopy) […]. They were cultivated on culture medium containing 50% of DMEM 1 g/L glucose (Lonza) and 50% of Ham's-F12 (Lonza) supplemented with 10% of FBS (Lonza), 2 mM of L-glutamine (Lonza) and 100 μg/ml of PRIMOCIN™ (InvivoGen). Skin biopsies were maintained at 37° C. in a humidified atmosphere containing 5% of CO2.
The stock solution of peptide compound SEQ ID NO: 7 was diluted at 0.5% or 1% before use. The biopsies were treated, or not, in duplicate, twice a day with 0.5% (light microscopy) or 1% (electron microscopy) of peptide compound SEQ ID NO: 7 for 48 hours.
After skin culture, tissues were fixed for 4 hours in buffered 10% formalin. Samples were transferred to baths with ethanol progressively concentrated to remove water, then followed by two baths of xylene to remove the alcohol, and finally embedded in molten paraffin wax. Embedded skin biopsies were then cut with a microtome (Shandon) into 4 μm thick sections and placed on SUPERFROST PLUS™ slides (Thermo Scientific).
Sections were deparaffinized and rehydrated with several successive xylene, alcohol and water baths. Then, 100 μl of Stock solution were added on each section and slides were incubated 10 minutes at 60° C. […]

[4] = tested on: normal human keratinocytes (NHK); assay: Comet assay on NHK cells irradiated with UVB; format: cell-based
Method: (§1) NHK and NHEM were placed in culture for 24 hours in the presence of a solution of peptide compound SEQ ID NO: 7 at 50 ppm diluted at 1% before use, then irradiated with UVB radiation in an amount of 30 mJ/cm^2 for NHEM and 60 mJ/cm^2 for NHK. A control condition was also used without a peptide active agent. The cells were then detached from their support by trypsin, then centrifuged at 900 rpm for 5 minutes in order to concentrate them and count them.
(§2) A defined number of cells (25,000 cells) was then embedded in a Low Melting agarose gel at 0.75%, then deposited on a glass slide previously coated with 1% agarose. The slides were then immersed in a lysis solution for 1 hour 30 minutes at 4° C., then in an alkaline solution for 20 minutes at 4° C. The cells were thus lysed and the DNA was denatured. The slides were immersed in an electrophoresis solution before an electric field (20 V-250 mA) is applied. The DNA thus denatured was subjected to migration in the agarose gel at 4° C. The application of a fluorescent DNA dye on the slides (propidium iodide at 2 μg/ml) makes it possible to observe, under the microscope, DNA appearing in the form of comets if it has been damaged.
(§3) Finally, quantification software makes it possible to determine the Tail Moment, means applied to each condition tested. […]

[5] = tested on: normal human epidermal melanocytes (NHEM); assay: Comet assay on NHEM cells irradiated with UVB; format: cell-based; conditions: peptide 1% (0.5 ppm) 24 hours pretreatment + UVB 30 mJ/cm^2
Method: as §1, §2, §3

[6] = tested on: cyclobutane pyrimidine dimers (CPDs) in NHEM; assay: Amount of cyclobutane pyrimidine dimers (CPDs) in melanocytes after UVB (immunostaining); format: cell-based, human; conditions: UVB 75 mJ/cm^2
Method: DNA damages induced by UVB radiation can be monitored by quantifying the amount of cyclobutane pyrimidine dimers (CPDs), which are formed after conformational changes in the DNA structure. […] The quantification of CPDs was carried out by immunohistochemical assay.
NHEM (normal human epidermis melanocytes) were grown in Melanocyte Growth Medium (PromoCell) supplemented with 1 ng/ml human basic fibroblast growth factor, 52 μg/ml medium bovine pituitary extract, 0.5 μg/ml hydrocortisone, 5 μg/ml human recombinant insulin, 10 ng/ml phorbol 12-myristate 13-acetate (PMA) and 100 μg/ml of PRIMOCIN (In vivoGen). When the cells were sub-cultured for the experiment, the same medium depleted in PMA was used. Cells were maintained at 37° C. in a humidified atmosphere containing 5% of CO2.
Cells were treated, or not, in duplicate, twice a day for 48 hours with a solution of peptide compound SEQ ID NO: 7 at 100 ppm, diluted at 0.5% or 1% before use. Then, they were irradiated, or not, with a 75 mJ/cm^2 UVB dose using a specific oven to ensure the homogeneity of the treatment. […]
Three images per condition were analyzed. Each picture was converted in grey levels and analyzed with Image-Pro Analyzer 6.3 software (MediaCybernetics, Inc.) which generated a histogram representing the number of pixels per intensity. The sum of all intensities was calculated. […]

Asp-Leu-Lys-Lys-NH2 (DLKK-NH2) [SEQ ID NO: 7]
increase of the dynactin subunit p150Glued staining [1]: 80%
frequency of keratinocyte containing melanosomes compared to the control ([2]; peptide 0.5% (0.5 ppm)): partially restored
frequency of keratinocyte containing melanosomes compared to the control ([2]; peptide 1% (1 ppm)): fully restored
supranuclear organization of melanosomes above the nucleus [3]: better supranuclear organization of melanosomes
reduction in Tail Moment versus UVB condition ([4]; peptide 1% (0.5 ppm) 24 hours pretreatment + UVB 60 mJ/cm^2): 70%
Tail Moment ([4]; peptide 1% (0.5 ppm) 24 hours pretreatment + UVB 60 mJ/cm^2, UVB alone 170.27, control 1.66): 51.36
reduction in Tail Moment versus UVB condition [5]: 55%
change of CPDs after UVB compared to the non treated condition ([6]; pretreated 48 hours with 0.5% (0.5 ppm)): −39%
change of CPDs after UVB compared to the non treated condition ([6]; pretreated 48 hours with 1% (1 ppm)): −59%
